For one compound, IC50 results are on record in ChEMBL document CHEMBL1157196, “Structure-based discovery of a novel non-peptidic small molecular inhibitor of caspase-3” (Bioorg Med Chem, 2008).

The target in one test is T1, Caspase-3 (Homo sapiens, UniProt P42574).
T1 sequence (P42574 whole entry): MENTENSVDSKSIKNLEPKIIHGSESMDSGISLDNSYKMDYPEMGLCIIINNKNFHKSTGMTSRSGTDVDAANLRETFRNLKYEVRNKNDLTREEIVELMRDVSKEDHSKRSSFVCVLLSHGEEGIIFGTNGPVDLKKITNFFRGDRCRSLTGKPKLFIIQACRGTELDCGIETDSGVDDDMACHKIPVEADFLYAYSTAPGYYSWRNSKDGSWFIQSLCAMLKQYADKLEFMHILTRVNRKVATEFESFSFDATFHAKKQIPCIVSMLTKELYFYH
Briefly: Inhibition of human recombinant caspase 3 preincubated for 10 mins.

For a further test, the target named is T2, Caspase-7 (Homo sapiens, UniProt P55210).
T2 sequence (P55210 whole entry): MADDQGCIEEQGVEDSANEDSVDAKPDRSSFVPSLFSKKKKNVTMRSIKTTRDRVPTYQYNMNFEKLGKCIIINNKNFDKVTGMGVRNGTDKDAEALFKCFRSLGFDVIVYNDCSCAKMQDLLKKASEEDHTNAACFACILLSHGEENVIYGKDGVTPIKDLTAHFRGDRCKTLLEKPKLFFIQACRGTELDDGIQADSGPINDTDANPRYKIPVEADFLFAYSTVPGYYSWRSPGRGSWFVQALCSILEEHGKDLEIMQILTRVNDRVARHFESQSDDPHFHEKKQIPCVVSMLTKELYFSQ
Briefly: Inhibition of human recombinant caspase 7 preincubated for 10 mins.

Another test concerns the target Caspase-8 (Homo sapiens, UniProt Q14790). The test can be described thus: Inhibition of human recombinant caspase 8 preincubated for 10 mins.
In the next test the target is T3, Caspase-9 (Homo sapiens, UniProt P55211).
T3 sequence (P55211 whole entry): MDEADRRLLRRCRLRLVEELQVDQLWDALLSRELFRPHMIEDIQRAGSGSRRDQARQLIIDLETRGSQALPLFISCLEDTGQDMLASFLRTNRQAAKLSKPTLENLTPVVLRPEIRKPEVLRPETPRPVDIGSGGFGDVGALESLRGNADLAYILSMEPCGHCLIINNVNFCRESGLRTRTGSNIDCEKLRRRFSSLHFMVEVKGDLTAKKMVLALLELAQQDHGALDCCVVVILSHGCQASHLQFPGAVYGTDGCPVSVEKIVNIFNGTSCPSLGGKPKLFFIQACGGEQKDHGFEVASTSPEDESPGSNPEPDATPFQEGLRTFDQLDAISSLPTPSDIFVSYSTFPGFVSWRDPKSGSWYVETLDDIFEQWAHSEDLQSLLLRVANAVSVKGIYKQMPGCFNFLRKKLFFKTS
The test can be described thus: Inhibition of human recombinant caspase 9 preincubated for 10 mins.

Caspase-8, sequence (Q14790 217-374 limits assumed): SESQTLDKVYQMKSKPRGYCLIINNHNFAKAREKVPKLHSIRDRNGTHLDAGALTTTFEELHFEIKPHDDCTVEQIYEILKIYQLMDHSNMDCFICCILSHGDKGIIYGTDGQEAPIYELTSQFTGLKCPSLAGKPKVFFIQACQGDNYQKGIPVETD
Caspase-8, sequence (Q14790 385-479 limits assumed): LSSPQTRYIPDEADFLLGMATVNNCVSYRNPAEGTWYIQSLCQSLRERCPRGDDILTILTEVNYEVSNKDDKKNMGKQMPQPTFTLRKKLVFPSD

As usually defined, the IC50 is the concentration at which inhibition is half-maximal. Regarding `CCOC(=O)COc1cc(C(=O)O)c(O)c2ccccc12`, the IC50 at Caspase-3 is 13.6 µM; at Caspase-7, 84.9 µM; on Caspase-8 it was > 100 µM; on Caspase-9, 93 µM.
